Columns and labels:
[1] = target: C-X-C chemokine receptor type 2 (Homo sapiens) (UniProt P25025); assay: Inhibition of human CXCR2 at 10 uM relative to control
[2] = target: Vasoactive intestinal polypeptide receptor 1 (Homo sapiens) (UniProt P32241); assay: Inhibition of human VPAC1 at 10 uM relative to control
[3] = target: D(2) dopamine receptor (Homo sapiens) (UniProt P14416); assay: Inhibition of human D(2) dopamine receptor expressed in stable human fibroblast cells at 10 uM relative to control; assay type: cell-based
[4] = target: Histamine H4 receptor (Homo sapiens) (UniProt Q9H3N8); assay: Inhibition of human Histamine H4 receptor expressed in HEK293T cells at 10 uM relative to control; assay type: cell-based
Histamine H4 receptor (Homo sapiens), sequence (Q9H3N8 whole entry): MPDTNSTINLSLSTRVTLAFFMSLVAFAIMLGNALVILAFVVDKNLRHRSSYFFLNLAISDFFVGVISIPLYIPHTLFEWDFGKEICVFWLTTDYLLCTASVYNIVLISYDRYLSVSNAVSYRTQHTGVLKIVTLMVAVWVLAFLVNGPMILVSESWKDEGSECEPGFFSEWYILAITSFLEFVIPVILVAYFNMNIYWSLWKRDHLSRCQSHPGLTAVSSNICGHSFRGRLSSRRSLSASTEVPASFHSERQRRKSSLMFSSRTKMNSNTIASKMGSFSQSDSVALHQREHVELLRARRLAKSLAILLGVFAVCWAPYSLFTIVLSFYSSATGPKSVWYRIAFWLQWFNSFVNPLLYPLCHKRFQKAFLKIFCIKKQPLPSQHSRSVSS

[5] = target: T1, Muscarinic acetylcholine receptor M1 (Homo sapiens) (UniProt P11229); assay: Inhibition of human Muscarinic acetylcholine receptor M1 at 10 uM relative to control
T1 sequence (whole entry): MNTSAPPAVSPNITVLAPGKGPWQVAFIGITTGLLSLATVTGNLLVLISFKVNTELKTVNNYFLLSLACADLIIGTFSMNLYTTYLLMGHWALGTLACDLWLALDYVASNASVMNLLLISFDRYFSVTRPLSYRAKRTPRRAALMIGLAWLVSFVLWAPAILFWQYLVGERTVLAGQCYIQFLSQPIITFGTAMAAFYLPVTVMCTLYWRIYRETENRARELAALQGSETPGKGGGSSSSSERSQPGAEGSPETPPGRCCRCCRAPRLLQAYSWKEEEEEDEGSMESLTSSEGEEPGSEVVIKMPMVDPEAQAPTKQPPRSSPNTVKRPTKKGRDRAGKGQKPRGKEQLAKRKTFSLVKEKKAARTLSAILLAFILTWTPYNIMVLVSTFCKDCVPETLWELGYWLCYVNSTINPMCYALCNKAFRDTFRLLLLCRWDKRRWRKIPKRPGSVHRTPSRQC

[6] = species: Rattus norvegicus; assay: Inhibition of Rat GABAA at 10 uM in the presence of 3H and BZP relative to control
[7] = target: Alpha-2C adrenergic receptor (Homo sapiens) (UniProt P18825); assay: Inhibition of human Alpha-2C adrenergic receptor in stable Canis lupus familiaris MDCK cells at 10 uM relative to control; assay type: cell-based
[8] = target: Kappa-type opioid receptor (Homo sapiens) (UniProt P41145); assay: Inhibition of human kappa opioid receptor expressed in stable HEK cells at 10 uM relative to control; assay type: cell-based
Kappa-type opioid receptor (Homo sapiens), sequence (P41145 whole entry): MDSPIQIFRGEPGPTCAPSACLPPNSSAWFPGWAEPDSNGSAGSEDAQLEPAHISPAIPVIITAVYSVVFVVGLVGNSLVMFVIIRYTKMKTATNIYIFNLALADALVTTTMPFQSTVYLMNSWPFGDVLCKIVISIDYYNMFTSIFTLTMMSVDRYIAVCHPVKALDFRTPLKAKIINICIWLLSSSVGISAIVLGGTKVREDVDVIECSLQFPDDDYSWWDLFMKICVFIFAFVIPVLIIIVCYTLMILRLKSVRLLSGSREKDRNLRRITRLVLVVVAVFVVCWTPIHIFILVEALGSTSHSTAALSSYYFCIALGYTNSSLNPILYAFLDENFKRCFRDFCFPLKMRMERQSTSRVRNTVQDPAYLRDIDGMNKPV

[9] = target: 5-hydroxytryptamine receptor 1D (Homo sapiens) (UniProt P28221); assay: Inhibition of human 5-HT1D expressed in HEK293T cells at 10 uM relative to control; assay type: cell-based
5-hydroxytryptamine receptor 1D (Homo sapiens), sequence (P28221 whole entry): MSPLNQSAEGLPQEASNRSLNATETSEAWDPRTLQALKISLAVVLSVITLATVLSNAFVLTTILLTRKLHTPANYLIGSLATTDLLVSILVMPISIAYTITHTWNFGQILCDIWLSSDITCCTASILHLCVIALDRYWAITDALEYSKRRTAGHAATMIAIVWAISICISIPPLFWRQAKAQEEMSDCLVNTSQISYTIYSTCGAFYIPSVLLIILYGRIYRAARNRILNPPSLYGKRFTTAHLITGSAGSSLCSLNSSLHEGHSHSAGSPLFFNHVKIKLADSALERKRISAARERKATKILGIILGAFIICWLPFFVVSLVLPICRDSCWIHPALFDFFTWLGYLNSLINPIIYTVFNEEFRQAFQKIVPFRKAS

[10] = target: Beta-2 adrenergic receptor (Homo sapiens) (UniProt P07550); assay: Inhibition of human Beta-2 adrenergic receptor at 10 uM relative to control
Beta-2 adrenergic receptor (Homo sapiens), sequence (P07550 whole entry, looked up): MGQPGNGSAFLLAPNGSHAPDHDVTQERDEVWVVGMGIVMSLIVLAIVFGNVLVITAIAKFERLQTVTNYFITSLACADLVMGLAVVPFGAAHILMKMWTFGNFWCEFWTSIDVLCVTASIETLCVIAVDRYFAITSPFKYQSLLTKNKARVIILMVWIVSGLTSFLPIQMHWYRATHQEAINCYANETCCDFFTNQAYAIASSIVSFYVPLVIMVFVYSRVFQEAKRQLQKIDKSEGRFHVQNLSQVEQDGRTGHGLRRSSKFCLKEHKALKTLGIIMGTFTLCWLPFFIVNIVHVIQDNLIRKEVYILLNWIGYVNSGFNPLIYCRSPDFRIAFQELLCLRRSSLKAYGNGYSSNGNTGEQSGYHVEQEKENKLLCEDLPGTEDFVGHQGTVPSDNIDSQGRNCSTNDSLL

[11] = target: Beta-2 adrenergic receptor (Homo sapiens) (UniProt P07550); assay: Inhibition of human Beta-2 adrenergic receptor expressed in human Flp-In-293 cells at 10 uM relative to control; assay type: cell-based
[12] = target: Substance-K receptor (Homo sapiens) (UniProt P21452); assay: Inhibition of human Substance-K receptor at 10 uM relative to control
Substance-K receptor (Homo sapiens), sequence (P21452 whole entry): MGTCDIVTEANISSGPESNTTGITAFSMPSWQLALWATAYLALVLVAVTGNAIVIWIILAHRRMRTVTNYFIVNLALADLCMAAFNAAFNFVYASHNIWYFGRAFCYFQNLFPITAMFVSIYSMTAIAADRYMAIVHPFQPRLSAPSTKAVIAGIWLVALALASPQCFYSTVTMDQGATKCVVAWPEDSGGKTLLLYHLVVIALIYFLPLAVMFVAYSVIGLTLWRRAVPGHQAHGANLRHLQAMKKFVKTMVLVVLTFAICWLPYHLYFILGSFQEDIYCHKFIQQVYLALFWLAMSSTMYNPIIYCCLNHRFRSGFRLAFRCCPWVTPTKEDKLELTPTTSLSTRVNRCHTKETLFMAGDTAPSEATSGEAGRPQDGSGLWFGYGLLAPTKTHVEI

[13] = target: D(3) dopamine receptor (Homo sapiens) (UniProt P35462); assay: Inhibition of human D(3) dopamine receptor expressed in HEK293T cells at 10 uM relative to control; assay type: cell-based
[14] = species: Rattus norvegicus; assay: Inhibition of Rat Somatostatin at 10 uM relative to control
[15] = target: T2, 5-hydroxytryptamine receptor 1A (Homo sapiens) (UniProt P08908); assay: Inhibition of human 5-HT1A receptor expressed in stable […] cells at 10 uM relative to control; assay type: cell-based; conditions: HEK293T
T2 sequence (whole entry): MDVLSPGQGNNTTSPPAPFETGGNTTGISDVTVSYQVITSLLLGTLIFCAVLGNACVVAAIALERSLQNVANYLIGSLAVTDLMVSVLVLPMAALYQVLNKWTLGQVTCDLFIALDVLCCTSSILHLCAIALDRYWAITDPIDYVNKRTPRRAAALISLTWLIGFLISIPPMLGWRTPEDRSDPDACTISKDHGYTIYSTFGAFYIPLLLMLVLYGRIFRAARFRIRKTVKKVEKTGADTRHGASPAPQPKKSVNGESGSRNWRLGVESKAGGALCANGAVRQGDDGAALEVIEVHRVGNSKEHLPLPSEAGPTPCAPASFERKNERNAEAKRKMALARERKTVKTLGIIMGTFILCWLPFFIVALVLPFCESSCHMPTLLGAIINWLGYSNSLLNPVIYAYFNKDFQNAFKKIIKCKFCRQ

[16] = target: Mu-type opioid receptor (Homo sapiens) (UniProt P35372); assay: Inhibition of human Mu-type opioid receptor expressed in stable HEK cells at 10 uM relative to control; assay type: cell-based
Mu-type opioid receptor (Homo sapiens), sequence (P35372 whole entry): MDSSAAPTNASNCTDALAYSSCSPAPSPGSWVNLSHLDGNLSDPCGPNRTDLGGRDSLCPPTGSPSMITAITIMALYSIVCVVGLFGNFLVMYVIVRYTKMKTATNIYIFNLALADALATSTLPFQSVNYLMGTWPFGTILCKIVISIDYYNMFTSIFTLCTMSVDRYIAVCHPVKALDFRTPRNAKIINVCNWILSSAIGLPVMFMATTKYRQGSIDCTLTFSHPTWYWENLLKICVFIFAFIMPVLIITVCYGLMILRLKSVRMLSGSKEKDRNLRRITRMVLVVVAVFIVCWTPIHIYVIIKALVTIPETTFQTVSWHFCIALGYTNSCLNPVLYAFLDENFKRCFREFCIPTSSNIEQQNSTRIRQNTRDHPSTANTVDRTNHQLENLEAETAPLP

[17] = target: Alpha-1B adrenergic receptor (Homo sapiens) (UniProt P35368); assay: Inhibition of human Alpha-1B adrenergic receptor expressed in HEK293T cells at 10 uM relative to control; assay type: cell-based
Alpha-1B adrenergic receptor (Homo sapiens), sequence (P35368 whole entry): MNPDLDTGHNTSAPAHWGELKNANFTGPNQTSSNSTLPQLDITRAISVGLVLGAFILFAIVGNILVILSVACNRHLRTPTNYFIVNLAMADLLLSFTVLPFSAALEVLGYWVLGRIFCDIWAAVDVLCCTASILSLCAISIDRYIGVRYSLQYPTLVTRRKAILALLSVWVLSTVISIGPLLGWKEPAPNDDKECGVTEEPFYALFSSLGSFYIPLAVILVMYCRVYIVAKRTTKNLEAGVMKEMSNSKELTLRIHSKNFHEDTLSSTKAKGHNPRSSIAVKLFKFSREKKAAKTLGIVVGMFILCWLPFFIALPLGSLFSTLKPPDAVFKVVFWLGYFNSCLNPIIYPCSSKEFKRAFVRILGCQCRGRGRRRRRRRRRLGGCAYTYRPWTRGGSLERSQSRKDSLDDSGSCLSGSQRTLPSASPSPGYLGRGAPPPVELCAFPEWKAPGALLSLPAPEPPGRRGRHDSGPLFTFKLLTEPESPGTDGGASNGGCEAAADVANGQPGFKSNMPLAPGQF

[18] = species: Homo sapiens; assay: Inhibition of human SKCa channel at 10 uM relative to control
[19] = target: Histamine H2 receptor (Homo sapiens) (UniProt P25021); assay: Inhibition of human Histamine H2 receptor expressed in stable HEK cells at 10 uM relative to control; assay type: cell-based
Histamine H2 receptor (Homo sapiens), sequence (P25021 whole entry): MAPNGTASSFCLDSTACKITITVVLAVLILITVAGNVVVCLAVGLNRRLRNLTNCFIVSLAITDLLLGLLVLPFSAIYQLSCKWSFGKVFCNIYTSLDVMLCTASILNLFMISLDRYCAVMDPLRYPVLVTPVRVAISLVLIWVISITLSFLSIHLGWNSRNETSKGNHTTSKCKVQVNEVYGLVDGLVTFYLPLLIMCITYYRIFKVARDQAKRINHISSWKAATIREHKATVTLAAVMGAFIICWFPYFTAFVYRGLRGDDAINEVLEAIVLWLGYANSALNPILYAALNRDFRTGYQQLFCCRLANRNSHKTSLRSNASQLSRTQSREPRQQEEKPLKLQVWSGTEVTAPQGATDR

[20] = target: Sodium-dependent dopamine transporter (Homo sapiens) (UniProt Q01959); assay: Inhibition of human Sodium-dependent dopamine transporter at 10 uM relative to control
[21] = target: 5-hydroxytryptamine receptor 2C (Homo sapiens) (UniProt P28335); assay: Inhibition of human 5-HT2C receptor expressed in HEK293T cells at 10 uM relative to control; assay type: cell-based
5-hydroxytryptamine receptor 2C (Homo sapiens), sequence (P28335 whole entry): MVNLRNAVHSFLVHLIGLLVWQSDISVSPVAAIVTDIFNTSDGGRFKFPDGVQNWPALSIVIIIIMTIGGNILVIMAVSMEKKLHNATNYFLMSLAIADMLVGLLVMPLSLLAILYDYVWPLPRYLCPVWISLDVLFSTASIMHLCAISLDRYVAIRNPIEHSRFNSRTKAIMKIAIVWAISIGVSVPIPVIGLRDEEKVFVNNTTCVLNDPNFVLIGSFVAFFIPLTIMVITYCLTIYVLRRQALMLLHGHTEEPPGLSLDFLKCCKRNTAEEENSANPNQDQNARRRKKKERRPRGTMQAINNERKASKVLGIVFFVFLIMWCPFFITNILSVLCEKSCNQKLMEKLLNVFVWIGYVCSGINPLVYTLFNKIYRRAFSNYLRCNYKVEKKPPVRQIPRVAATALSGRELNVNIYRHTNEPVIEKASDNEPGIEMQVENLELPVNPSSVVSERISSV

[22] = target: 5-hydroxytryptamine receptor 1B (Homo sapiens) (UniProt P28222); assay: Inhibition of human 5-HT1B expressed in stable HEK cells at 10 uM relative to control; assay type: cell-based
[23] = target: Histamine H3 receptor (Homo sapiens) (UniProt Q9Y5N1); assay: Inhibition of human Histamine H3 receptor expressed in human Flp-In-293 cells at 10 uM relative to control; assay type: cell-based
[24] = target: Nociceptin receptor (Homo sapiens) (UniProt P41146); assay: Inhibition of human Nociceptin receptor at 10 uM relative to control
Nociceptin receptor (Homo sapiens), sequence (P41146 whole entry): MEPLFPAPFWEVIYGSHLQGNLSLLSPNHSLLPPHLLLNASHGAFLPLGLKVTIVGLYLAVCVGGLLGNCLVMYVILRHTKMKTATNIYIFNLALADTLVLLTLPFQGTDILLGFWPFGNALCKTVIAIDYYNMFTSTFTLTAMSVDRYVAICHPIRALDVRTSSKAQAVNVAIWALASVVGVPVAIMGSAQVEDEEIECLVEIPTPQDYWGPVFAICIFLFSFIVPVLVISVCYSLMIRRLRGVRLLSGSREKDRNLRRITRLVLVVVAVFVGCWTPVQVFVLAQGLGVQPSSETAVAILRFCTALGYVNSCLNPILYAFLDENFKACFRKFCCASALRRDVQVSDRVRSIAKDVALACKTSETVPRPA

[25] = target: Type-1 angiotensin II receptor (Homo sapiens) (UniProt P30556); assay: Inhibition of human AT1 at 10 uM relative to control
Type-1 angiotensin II receptor (Homo sapiens), sequence (P30556 whole entry): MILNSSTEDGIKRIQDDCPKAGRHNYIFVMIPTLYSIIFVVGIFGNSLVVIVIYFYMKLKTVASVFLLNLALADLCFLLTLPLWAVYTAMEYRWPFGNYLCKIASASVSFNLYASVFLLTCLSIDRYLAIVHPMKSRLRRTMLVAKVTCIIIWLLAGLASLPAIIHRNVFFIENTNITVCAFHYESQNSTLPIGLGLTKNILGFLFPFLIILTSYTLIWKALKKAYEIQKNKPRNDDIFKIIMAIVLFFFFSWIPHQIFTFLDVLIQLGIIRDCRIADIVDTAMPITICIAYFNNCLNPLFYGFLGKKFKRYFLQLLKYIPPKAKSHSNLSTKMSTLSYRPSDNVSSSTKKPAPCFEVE

[26] = target: Histamine H1 receptor (Homo sapiens) (UniProt P35367); assay: Inhibition of human HH1R at 10 uM relative to control
[27] = target: 5-hydroxytryptamine receptor 2B (Homo sapiens) (UniProt P41595); assay: Inhibition of human 5-HT2B receptor expressed in stable HEK cells at 10 uM relative to control; assay type: cell-based

Vasoactive intestinal polypeptide receptor 1 (Homo sapiens), sequence (P32241 whole entry): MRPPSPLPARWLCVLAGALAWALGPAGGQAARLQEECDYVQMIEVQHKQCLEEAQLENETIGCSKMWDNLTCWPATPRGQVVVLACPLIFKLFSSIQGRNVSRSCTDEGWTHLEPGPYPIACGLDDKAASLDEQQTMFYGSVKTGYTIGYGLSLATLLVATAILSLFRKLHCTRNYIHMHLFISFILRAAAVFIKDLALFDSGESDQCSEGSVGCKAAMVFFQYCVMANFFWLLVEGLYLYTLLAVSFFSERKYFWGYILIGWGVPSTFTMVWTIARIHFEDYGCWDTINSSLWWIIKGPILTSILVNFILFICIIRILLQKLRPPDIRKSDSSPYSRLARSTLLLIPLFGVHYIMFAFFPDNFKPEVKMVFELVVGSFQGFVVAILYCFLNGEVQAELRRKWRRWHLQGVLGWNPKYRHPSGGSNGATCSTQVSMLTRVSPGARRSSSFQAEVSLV

| SMILES | inhibition [1] | inhibition [2] | inhibition [3] | inhibition [4] | inhibition [5] | inhibition [6] | inhibition [7] | inhibition [8] | inhibition [9] | inhibition [10] | inhibition [11] | inhibition [12] | inhibition [13] | inhibition [14] | inhibition [15] | inhibition [16] | inhibition [17] | inhibition [18] | inhibition [19] | inhibition [20] | other results |
| --- | --- | --- | --- | --- | --- | --- | --- | --- | --- | --- | --- | --- | --- | --- | --- | --- | --- | --- | --- | --- | --- |
| O=C(c1nnc(NC2CCCC2)c2cc(Cl)c(Cl)cc12)N1CCC(O)CC1 | 8% | -4% | 39% | -3% | 10% | 29% | 4% | 54% | 1% | 10% | 17% | 53% | 0% | 5% | 12% | 22% | -4% | -5% | -7% | -1% | inhibition [21]: 13%; inhibition [22]: 5%; inhibition [23]: -4%; inhibition [24]: 0%; inhibition [25]: -7%; inhibition [26]: 3%; inhibition [27]: 4% |
| Clc1cc2c(NC3CCCC3)nnc(-c3ccncc3)c2cc1Cl | -1% | -5% | -6% | -6% | 21% | 5% | 0% | 26% | -8% | 9% | 20% | 61% | 1% | 2% | 6% | 11% | 1% | 3% | -1% | 14% | inhibition [21]: 8%; inhibition [22]: 4%; inhibition [23]: 6%; inhibition [24]: 13%; inhibition [25]: 10%; inhibition [26]: 1%; inhibition [27]: 16% |

— ChEMBL document CHEMBL5649167, “The SUV4-20 inhibitor A-196 verifies a role for epigenetics in genomic integrity” (Nat Chem Biol, 2017)
